Assays:
PDE10A (human) = target: T1, PDE10A (human) (Homo sapiens, UniProt Q9Y233); assay: Measurement of PDE activity (HTRF cAMP kit), human PDE10A; format: biochemical; conditions: PDE enzymatic reaction, substrate 20 nM for PDE10, 60 minutes at 29 C
T1 construct: purchased BPS Bioscience
How it was run: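 HTRF detection of cAMP left after hydrolysis, expressed as percent of uninhibited control to derive IC50. Reaction: serially diluted inhibitor mixed with recombinant enzyme, started with 20 nM cAMP, 60 min at 29 °C in Tris-HCl pH 7.5 buffer containing MgCl2 and BSA.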

in vitro [1] = conditions: rat, microsomes, pH 7.4
in vitro [2] = conditions: human, microsomes, pH 7.4
catalepsy in rats = conditions: cited from earlier work
[3] = test system: hyperactivity in rats induced by PCP; conditions: cited from earlier work
[4] = test system: amphetamine-induced hyperactivity; conditions: rat, in vivo; cited from earlier work
[5] = after systemic administration; cited from earlier work
[6] = Determination of the microsomal half-life, rat liver microsomes; conditions: rat, liver microsomes, pH 7.4
[7] = Determination of the microsomal half-life, human liver microsomes; conditions: human, liver microsomes, pH 7.4

T1 sequence (Q9Y233 whole entry): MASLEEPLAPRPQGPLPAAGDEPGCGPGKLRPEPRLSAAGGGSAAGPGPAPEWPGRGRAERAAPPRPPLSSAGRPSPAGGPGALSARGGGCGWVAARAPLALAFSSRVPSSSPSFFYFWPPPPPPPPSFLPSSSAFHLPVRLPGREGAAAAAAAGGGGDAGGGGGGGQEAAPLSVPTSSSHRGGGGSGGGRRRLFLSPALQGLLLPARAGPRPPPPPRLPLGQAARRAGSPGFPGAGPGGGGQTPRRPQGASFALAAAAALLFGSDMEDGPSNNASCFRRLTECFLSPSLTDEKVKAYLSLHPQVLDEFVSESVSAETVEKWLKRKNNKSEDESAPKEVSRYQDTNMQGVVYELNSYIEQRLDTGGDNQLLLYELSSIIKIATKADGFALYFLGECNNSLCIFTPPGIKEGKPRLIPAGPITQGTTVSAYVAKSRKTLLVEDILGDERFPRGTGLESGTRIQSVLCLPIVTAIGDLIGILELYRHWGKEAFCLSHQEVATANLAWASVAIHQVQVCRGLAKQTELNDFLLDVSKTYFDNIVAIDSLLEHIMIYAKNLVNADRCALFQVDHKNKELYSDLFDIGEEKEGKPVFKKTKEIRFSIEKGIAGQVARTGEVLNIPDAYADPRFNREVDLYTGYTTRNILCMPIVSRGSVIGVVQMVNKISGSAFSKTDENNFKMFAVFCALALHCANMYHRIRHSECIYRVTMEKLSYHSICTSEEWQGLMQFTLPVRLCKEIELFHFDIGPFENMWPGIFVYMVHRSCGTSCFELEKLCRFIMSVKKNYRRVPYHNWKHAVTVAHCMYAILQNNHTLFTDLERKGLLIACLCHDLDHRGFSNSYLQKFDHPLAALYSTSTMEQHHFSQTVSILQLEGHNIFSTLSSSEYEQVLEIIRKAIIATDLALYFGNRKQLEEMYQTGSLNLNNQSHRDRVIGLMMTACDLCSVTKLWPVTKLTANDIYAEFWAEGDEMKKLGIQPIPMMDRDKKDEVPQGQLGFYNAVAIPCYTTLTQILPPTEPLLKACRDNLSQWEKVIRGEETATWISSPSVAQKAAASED

IC50 (PDE10A (human)) [nM]	microsomal CLint at 0.5 μM [6] [µL/min/mg]	microsomal CLint at 0.5 μM [7] [µL/min/mg]	Structure (SMILES)	other results
200 to 500			O=C1c2c(cccc2N2C3CCC2CNC3)CN1CCc1ccc2ccccc2n1 [Example 103, 7-(3,8-Diaza-bicyclo[3.2.1]oct-8-yl)-2-(2-quinolin-2-yl-ethyl)-2,3-dihydro-isoindol-1-one]	microsomal CLint at 0.5 μM (in vitro [1]): < 100 µL/min/mg; microsomal CLint at 0.5 μM (in vitro [2]): < 100 µL/min/mg
< 100	100 to 220	100 to 220	COc1ccc(-c2cccc3c2C(=O)N(CCc2ccc4ccccc4n2)C3)cn1 [Example 54, 7-(6-Methoxy-pyridin-3-yl)-2-(2-quinolin-2-yl-ethyl)-2,3-dihydro-isoindol-1-one]	
< 100	< 100	< 100	O=C1c2c(N3CCS(=O)(=O)CC3)ccnc2CN1CCc1ccc2ccccc2n1 [Example 137, 4-(1,1-Dioxo-thiomorpholin-4-yl)-6-(2-quinolin-2-yl-ethyl)-6,7-dihydro-pyrrolo[3,4-b]pyridin-5-one]	
< 100	100 to 220	100 to 220	O=C1c2c(-c3ccncc3)ccnc2CN1CCc1ccc2sccc2n1 [compound 472, 4-(4-Pyridyl)-6-(2-thieno[3,2-b]pyridin-5-ylethyl)-7H-pyrrolo[3,4-b]pyridin-5-one]	
< 100	< 100	< 100	O=C1c2c(cccc2-c2ccc3[nH]c(=O)[nH]c3c2)CN1CCc1cn2ccccc2n1 [Example 245, 5-[2-(2-Imidazo[1,2-a]pyridin-2-yl-ethyl)-3-oxo-2,3-dihydro-1H-isoindol-4-yl]-1,3-dihydro-benzoimidazol-2-one]	

More lines, now with the values behind:

Structure (SMILES)	IC50 (PDE10A (human)) [nM]	microsomal CLint at 0.5 μM [6] [µL/min/mg]	microsomal CLint at 0.5 μM [7] [µL/min/mg]	other results
COc1ccc(Cc2nccc3cc(OC)c(OC)cc23)cc1OC [Papaverine, papaverine]				catalepsy on its own (catalepsy in rats; papaverine alone): did not cause catalepsy on its own; cataleptic effect of the D2 receptor antagonist haloperidol (catalepsy in rats; together with haloperidol): potentiated the cataleptic effect; hyperactivity induced by PCP [3]: reduced hyperactivity; reduction of amphetamine-induced hyperactivity [4]: insignificant; exposure half-life [5]: very short
O=C1c2c(-c3ccoc3)ccnc2CN1CCc1cn2cc(F)ccc2n1 [compound 526, 6-[2-(6-Fluoroimidazo[1,2-a]pyridin-2-yl)ethyl]-4-(3-furyl)-7H-pyrrolo[3,4-b]pyridin-5-one]	< 100	100 to 220	< 100	
Cc1ccc2c(c1)nc(CCN1Cc3nccc(-c4cncnc4)c3C1=O)n2C [compound 535, 6-[2-(1,5-Dimethyl-1H-benzoimidazol-2-yl)-ethyl]-4-pyrimidin-5-yl-6,7-dihydro-pyrrolo[3,4-b]pyridin-5-one]	< 100	< 100	< 100	
[2H]c1nc2c(c(N3CCOCC3)c1[2H])C(=O)N(CC([2H])([2H])c1nc3c([2H])c([2H])c([2H])c([2H])c3c([2H])c1[2H])C2([2H])[2H] [compound 513, 2,3,7,7-Tetradeuterio-6-[2,2-dideuterio-2-(3,4,5,6,7,8-hexadeuterio-2-quinolyl)ethyl]-4-morpholino-pyrrolo[3,4-b]pyridin-5-one]	< 100	> 220	100 to 220	
CC(C)c1ccc(CCN2Cc3nccc(N4CCOCC4)c3C2=O)nc1 [compound 401, 6-[2-(5-Isopropyl-2-pyridyl)ethyl]-4-morpholino-7H-pyrrolo[3,4-b]pyridin-5-one]	< 100	100 to 220	< 100	

From patent publication US9938269B2, “Inhibitor compounds of phosphodiesterase type 10A” (ABBVIE INC., priority 2011, dated 2018)
